The nature of data set [1]: Binding of ligands to hydroxy apatite, ^31 P NMR study. The method, then: (§1) 1 ml of hydroxy apatite solution 250 mg/ml in water was used for all the binding assays to described.
The solid from 1 ml of hydroxy apatite solution was isolated by centrifugation and the supernatant removed. 0.41 ml of a 0.1M solution of ligand at pH 7.5±0.1 were than added and the solid resuspended. The solid was once more spun down and the supernatant analysed by ^31 P NMR. This enabled the amount of bound phosphonate to be analysed.

Data set [2] in a line: Binding of chromium complexes to hydroxy apatite, by T1 relaxation measurement. The note with it: 0.4 ml of 50 mM metal complex; HAP 250 mg/ml. The protocol:
as §1
The procedure above was followed but this time 0.4 ml of 50 mM metal complex solution was added and the solid resuspended. The supernatant was analysed by T1 using T1 relaxation measurements and the amount bound to hydroxy apatite calculated.

Data set [3] is described as follows: ^153 Gd biodistribution, IV study in rats. Format: in vivo, male rats. Particulars: for effect of added Ca^2+ or dimethylglucamine on bone uptake: Ca^2+ and dimethylglucamine added separately to aqueous solutions; for Bladder & Urine / Blood / Bone / Carcass / Injection Site / Kidneys / Liver & Spleen / Lung / Muscle / Ratio Bone/Blood / Ratio Bone/Liver & Spleen / Ratio Bone/Muscle / Stomach & Gut / usefulness as bone scanning / bone-seeking agent: rat, IV, two hours post injection. The source says:
This example uses ^153 Gd to compare the biodistribution properties of various complexes in rats.
Using ^153 Gd, a comparison was made of certain properties of aqueous "solutions" of
The biodistribution data there reported were obtained by means of an IV study in male rats which were sacrified two hours post injection. % activity per organ is given, together with ratios of bone to organ.
It is known that Ca^2+ can bind to di- and poly-phosphonates, and that this is one reason why these materials are toxic. It is also known that dimethylglucamine can be used to solubilize complexes of this kind.

A short description of data set [4]: Solubility / precipitation of Gd complexes. Format: physicochemical. The method, then:
Equal volumes of 1 mM methylene diphosphonic acid and 0.5 mM Gd^3+ were used to prepare a complex designated Gd.MDP.
Equal volumes of 10 mM ethane-1-hydroxy-1,1-diphosphonic acid and 5 mM Gd^3+ were used to prepare a complex designated Gd.EHDP.

[5] abbreviates: ligand 0.1M, 0.41 ml, pH 7.5±0.1, HAP 250 mg/ml, ^31 P NMR.

Consider 15 compounds from patent publication US4880007A, “Contrast agent for NMR scanning” (Amersham International PLC, priority 1985, dated 1989).

Consider `O=P(O)(O)CN(CCO)CP(=O)(O)O` [AEDMP, Amino ethanol dimethylene phosphonate], for which, in data set [1] (setting [5]), the “% Bound to HAP” value stood at 50.9%.
On the same count and under the same terms, next, `O=C(O)CCCCCN(CP(=O)(O)O)CP(=O)(O)O` [AHADMP, 6-amino hexanoic acid dimethylene phosphonate]: 89.7%.
For `O=P(O)(O)CN(CCO)CP(=O)(O)O.O=P(O)(O)CN(CCO)CP(=O)(O)O.[Cr]` [Cr(AEDMP)2], the “% Bound” value in data set [2] was 96%.
On to `O=C(O)CCCCCN(CP(=O)(O)O)CP(=O)(O)O.O=C(O)CCCCCN(CP(=O)(O)O)CP(=O)(O)O.[Cr]` [Cr(AHADMP)2], for which the “% Bound” value in data set [2] came to 96%.
Regarding `O=C(O)CCCN(CP(=O)(O)O)CP(=O)(O)O.O=C(O)CCCN(CP(=O)(O)O)CP(=O)(O)O.[Cr]` [Cr(GABADMP)2], the “% Bound” value in data set [2] is 90%.
`O=C(O)CN(CP(=O)(O)O)CP(=O)(O)O.O=C(O)CN(CP(=O)(O)O)CP(=O)(O)O.[Cr]` [Cr(GDMP)2]: the “% Bound” value in data set [2] was found to be 80%.
On the same count and under the same terms, next, `O=P(O)(O)CN(Cc1cccc(CN(CP(=O)(O)O)CP(=O)(O)O)c1)CP(=O)(O)O.[Cr]` [CrMXDTMP]: 96%.
Turning to `O=C(O)CCCN(CP(=O)(O)O)CP(=O)(O)O` [GABADMP, Gamma amino butyric acid dimethylene phosphonate], in data set [1] (setting [5]), the “% Bound to HAP” value stood at 77.8%.
For `O=C(O)CN(CP(=O)(O)O)CP(=O)(O)O` [GDMP, Glycine dimethylene phosphonate], in data set [1] (pH 7.5), the “% Bound to HAP” value is given as 88.2%.
In the case of `O=P(O)(O)CN(CCN(CP(=O)(O)O)CP(=O)(O)O)CP(=O)(O)O.[Gd]` [Gd.EDTMP], in data set [3], the “effect of added Ca^2+ or dimethylglucamine on bone uptake” value was “neither addition had a significant effect”, the “Bladder & Urine” value came to 45.8 % activity per organ, the Blood came out at 0.6 % activity per organ and the Bone is recorded as 45.2 % activity per organ. In data set [3], the Carcass turned out to be 3.5 % activity per organ, the “Injection Site” value is listed as 2.1 % activity per organ, the Kidneys worked out at 0.4 % activity per organ and the “Liver & Spleen” value is listed as 1.4 % activity per organ. Besides, in data set [3], the Lung is recorded as 0.1 % activity per organ, the Muscle amounted to 1.1 % activity per organ, the “Ratio Bone/Blood” value came to 173.0 and the “Ratio Bone/Liver & Spleen” value worked out at 35.2. Moreover, in data set [3], the “Ratio Bone/Muscle” value is recorded as 491.2, the “Stomach & Gut” value worked out at 1.9 % activity per organ and the “usefulness as bone scanning / bone-seeking agent” value is listed as “good bone-seeking agent”.
In the case of `CC(O)(P(=O)(O)O)P(=O)(O)O.[Gd]` [Gd.EHDP], in data set [3], the “effect of added Ca^2+ or dimethylglucamine on bone uptake” value is “neither addition had a significant effect”, the “Bladder & Urine” value is listed as 24.0 % activity per organ, the Blood was determined as 21.45 % activity per organ and the Bone is on record as 22.64 % activity per organ. In addition, in data set [3], the Carcass is 0.01 % activity per organ, the “Injection Site” value came to 2.91 % activity per organ, the Kidneys was 1.05 % activity per organ and the “Liver & Spleen” value is 11.29 % activity per organ. For the same compound, in data set [3], the Lung was found to be 1.55 % activity per organ, the Muscle is recorded as 13.8 % activity per organ, the “Ratio Bone/Blood” value amounted to 1.24 and the “Ratio Bone/Liver & Spleen” value is reported as 2.04. For the same compound, in data set [3], the “Ratio Bone/Muscle” value was determined as 14.07, the “Stomach & Gut” value came to 4.21 % activity per organ and the “usefulness as bone scanning / bone-seeking agent” value is listed as “not useful as bone scanning agents”. Also, the “pH needed to avoid precipitation” value in data set [4] (equal volumes 10 mM ligand and 5 mM Gd^3+) is recorded as “above 7”.
Take `O=P(O)(O)CP(=O)(O)O.[Gd]` [Gd.MDP]: in data set [3], the “Bladder & Urine” value is reported as 1.0 % activity per organ, the Blood came out at 0.1 % activity per organ, the Bone is 3.1 % activity per organ and the Carcass turned out to be 0.7 % activity per organ. Moreover, in data set [3], the “Injection Site” value was 0.5 % activity per organ, the Kidneys came to 0.3 % activity per organ, the “Liver & Spleen” value is 93.9 % activity per organ and the Lung was determined as 0.4 % activity per organ. For the same compound, in data set [3], the Muscle came out at 0.3 % activity per organ, the “Ratio Bone/Blood” value came out at 33.2, the “Ratio Bone/Liver & Spleen” value was found to be 0.0 and the “Ratio Bone/Muscle” value is on record as 80. Moreover, in data set [3], the “Stomach & Gut” value is on record as 0.0 % activity per organ and the “usefulness as bone scanning / bone-seeking agent” value was “not useful as bone scanning agents”. For the same compound, the “solubility” value in data set [4] (around physiological pH's) is “poor solubility properties”.
On to `O=P(O)(O)CN(Cc1cccc(CN(CP(=O)(O)O)CP(=O)(O)O)c1)CP(=O)(O)O` [MXDTMP, Meta-xylene diamine tetramethylene phosphonate], for which the “% Bound to HAP” value in data set [1] (setting [5]) is reported as 84.1%.
The same measure, in the same setting: next, `O=P(O)(O)CN(Cc1ccc(CN(CP(=O)(O)O)CP(=O)(O)O)cc1)CP(=O)(O)O` [PXDTMP, Para-xylene diamine tetramethylene phosphonate]: 88.0%.
On to `[153Gd+3].[Cl-].[Cl-].[Cl-]` [^153 Gd.Cl3], for which, in data set [3], the “Bladder & Urine” value is listed as 12.5 % activity per organ, the Blood is on record as 3.7 % activity per organ, the Bone was 38.6 % activity per organ and the Carcass was 1.8 % activity per organ. Further, in data set [3], the “Injection Site” value was determined as 3.4 % activity per organ, the Kidneys came to 2.5 % activity per organ, the “Liver & Spleen” value was 32.5 % activity per organ and the Lung is 0.6 % activity per organ. Besides, in data set [3], the Muscle is 4.0 % activity per organ, the “Ratio Bone/Blood” value came out at 12.2, the “Ratio Bone/Liver & Spleen” value stood at 1.1 and the “Ratio Bone/Muscle” value worked out at 83. Besides, the “Stomach & Gut” value in data set [3] is 3.9 % activity per organ.
